Experimental data: patent publication US8445480B2, “CETP inhibitors derived from benzoxazole arylamides” (Merck Sharp & Dohme Corp., priority 2007, dated 2013)
pIC50: −log10 of the molar value.

Biological target: T1, recombinant human CETP (Homo sapiens, UniProt P11597)
T1 construct: made in house; host or cells: CHO cells
T1 sequence (P11597 18-493): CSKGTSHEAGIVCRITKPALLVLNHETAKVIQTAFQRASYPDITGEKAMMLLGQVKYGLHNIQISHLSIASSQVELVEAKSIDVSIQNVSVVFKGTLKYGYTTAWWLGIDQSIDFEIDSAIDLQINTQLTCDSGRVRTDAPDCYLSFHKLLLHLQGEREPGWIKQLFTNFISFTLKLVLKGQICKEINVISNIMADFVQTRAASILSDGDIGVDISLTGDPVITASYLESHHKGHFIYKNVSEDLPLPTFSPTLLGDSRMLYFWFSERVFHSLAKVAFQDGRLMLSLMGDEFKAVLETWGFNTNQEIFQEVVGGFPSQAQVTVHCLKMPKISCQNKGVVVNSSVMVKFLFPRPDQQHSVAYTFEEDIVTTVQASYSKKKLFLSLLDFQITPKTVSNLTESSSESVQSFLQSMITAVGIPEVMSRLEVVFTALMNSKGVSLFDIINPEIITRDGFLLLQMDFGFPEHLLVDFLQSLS
Assay: CETP assay, in vitro continuous fluorescence assay of CE transfer (BODIPY-CE donor particles)
Type: biochemical
Details: CE transfer reaction, 3% human serum, 25° C.; read-out: IC50 value as measured for the CE transfer reaction
Description: An in vitro continuous assay for determining IC50's to identify compounds that are CETP inhibitors was performed based on a modification of the method described by Epps et al. employing BODIPY®-CE as the cholesteryl ester lipid donor and BODIPY®-TG as the triglyceride lipid donor. See Epps et al. (1995) Method for measuring the activities of cholesteryl ester transfer protein (lipid transfer protein), Chem. Phys. Lipids. 77, 51-63.
Particles used in the assay were created from the following materials by probe sonication essentially as described by Epps et al. Synthetic cholesteryl ester (CE) donor HDL particles contained DOPC (Dioleoyl Phosphatidyl Choline), BODIPY®-CE (Molecular Probes C-3927), triolein (a triglyceride), dabcyl dicetylamide, (a non-diffusible quencher molecule to reduce background fluorescence) and apoHDL. Synthetic triglyceride (TG) donor HDL particles contained DOPC, BODIPY®-TG, and apoHDL. […] Particle concentrations were expressed in terms of protein concentration as determined by BCA assay (Pierce, USA). […]
Assays were performed in Dynex Microfluor 2 U-bottom black 96-well plates (Cat #7205). […] CE transfer reactions were performed as follows: final concentrations of materials were: 2.5 ng/μCE donor particles, 7.5 ng/μL acceptor particles (each expressed by protein content), 1×CETP buffer, 14-30 nM recombinant human CETP (expressed in CHO cells and partially purified), and up to 2% DMSO when testing compounds; reactions were followed in a fluorescence plate reader (Molecular Devices Spectramax GeminiXS) set for a 45 minute kinetic run at 25° C. which read the samples every 45 sec at Ex=480 nm, Em=511 nm, with a cutoff filter at 495 nm, photomultiplier tube setting of medium, calibration on, and 6 reads/well. […] TG transfer was measured at an excitation wavelength of 538 nm while reading emission at 568 nm every 45 sec for 45 min at 37° C. with a cutoff filter at 550 nm.
Data were evaluated by obtaining an initial rate, expressed in relative fluorescence units per second, for the pseudolinear portion of the curve, often 0-500 or 1000 sec. […]

pIC50, 7.22 to 7.89:
CC(C)c1cc(C#N)cc2nc(-c3ccc(C(=O)NCC4CCN(Cc5cccc(C(F)(F)F)c5)CC4)cc3)oc12 [Example 58]
CC(C)c1cc(C#N)cc2nc(-c3ccc(C(=O)NCC4CCN(c5ccc(C(F)(F)F)cn5)CC4)cc3)oc12 [Example 3]
CC(C)c1cc(C#N)cc2nc(-c3ccc(C(=O)NCC4CCN(c5nccc(C(F)(F)F)n5)CC4)cc3)oc12 [Example 1, 4-(5-Cyano-7-isopropyl-1,3-benzoxazol-2-yl)-N-({1-[4-(trifluoromethyl)pyrimidin-2-yl]piperidin-4-yl}methyl)benzamide]
